Measured values taken from PubChem BioAssay AID330 (DTP/NCI, 2004).
Where “and” joins values, the source holds several entries; their conditions need not be identical. Equal values may be shown once. Toxic doses and inconclusive results are not listed. The calls were made as follows: active = survival T/C of 150% or more; inactive = T/C below 125% in these data.

System: P388 leukemia ip, CD2F1 mice, survival T/C
Experiment: NCI In Vivo Anticancer Drug Screen. Data for tumor model P388 Leukemia (intraperitoneal) in CD2F1 (CDF1) mice
Settings: endpoint: median survival time, higher = longer survival
How it was run: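 Mice carrying the transplanted tumor received test compound or vehicle. Survival was recorded in each group, and the value is the treated-group measurement divided by that of the vehicle-treated control group.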

[1] = dose: 50.0 mg/kg/injection, schedule: Q01DX009 (ip), vehicle: saline with Tween-80
[2] = dose: 100.0 mg/kg/injection, schedule: Q01DX009 (ip), vehicle: saline with Tween-80
[3] = dose: 200.0 mg/kg/injection, schedule: Q01DX009 (ip), vehicle: saline with Tween-80
[4] = dose: 50.0 mg/kg/injection, schedule: Q01DX009 (ip), vehicle: Klucel (hydroxypropylcellulose) (HPC)
[5] = dose: 100.0 mg/kg/injection, schedule: Q01DX009 (ip), vehicle: Klucel (hydroxypropylcellulose) (HPC)
[6] = dose: 200.0 mg/kg/injection, schedule: Q01DX009 (ip), vehicle: Klucel (hydroxypropylcellulose) (HPC)
[7] = dose: 50.0 mg/kg/injection, schedule: Q01DX009 (ip), vehicle: saline
[8] = dose: 100.0 mg/kg/injection, schedule: Q01DX009 (ip), vehicle: saline
[9] = dose: 200.0 mg/kg/injection, schedule: Q01DX009 (ip), vehicle: saline
[10] = dose: 60.0 mg/kg/injection, schedule: Q01DX005 (ip), vehicle: saline with Tween-80
[11] = dose: 120.0 mg/kg/injection, schedule: Q01DX005 (ip), vehicle: saline with Tween-80
[12] = dose: 240.0 mg/kg/injection, schedule: Q01DX005 (ip), vehicle: saline with Tween-80
[13] = dose: 50.0 mg/kg/injection, schedule: Q04DX003 (ip), vehicle: Klucel (hydroxypropylcellulose) (HPC)
[14] = dose: 100.0 mg/kg/injection, schedule: Q04DX003 (ip), vehicle: Klucel (hydroxypropylcellulose) (HPC)
[15] = dose: 200.0 mg/kg/injection, schedule: Q04DX003 (ip), vehicle: Klucel (hydroxypropylcellulose) (HPC)
[16] = dose: 100.0 mg/kg/injection, schedule: Q01DX001 (ip), vehicle: Klucel (hydroxypropylcellulose) (HPC)
[17] = dose: 200.0 mg/kg/injection, schedule: Q01DX001 (ip), vehicle: Klucel (hydroxypropylcellulose) (HPC)
[18] = dose: 400.0 mg/kg/injection, schedule: Q01DX001 (ip), vehicle: Klucel (hydroxypropylcellulose) (HPC)

Measured: T/C

CCOC(=O)N1CCc2cc(OC)c(OC)cc2/C1=C/c1cc(Br)sc1Br
inactive: dose: 100.0 mg/kg/injection, schedule: Q04DX002 (ip), vehicle: Klucel (hydroxypropylcellulose) (HPC) 102 % of control | dose: 200.0 mg/kg/injection, schedule: Q04DX002 (ip), vehicle: Klucel (hydroxypropylcellulose) (HPC) 103 % of control | dose: 400.0 mg/kg/injection, schedule: Q04DX002 (ip), vehicle: Klucel (hydroxypropylcellulose) (HPC) 105 % of control

CN(CCO)c1n[nH]c(=O)c2ccccc12
inactive: [1] 109 % of control | [2] 101 % of control | [3] 101 % of control

CCO/C=C(/C#N)C(=O)OC
inactive: dose: 100.0 mg/kg/injection, schedule: Q04DX002 (ip), vehicle: saline 100 % of control | dose: 200.0 mg/kg/injection, schedule: Q04DX002 (ip), vehicle: saline 101 % of control | dose: 400.0 mg/kg/injection, schedule: Q04DX002 (ip), vehicle: saline 100 % of control

CCOC(=O)CCOc1ccccc1N(CCCl)CCCl
active: dose: 3.13 mg/kg/injection, schedule: Q04DX003 (ip), vehicle: saline with Tween-80 150 % of control | dose: 6.25 mg/kg/injection, schedule: Q04DX003 (ip), vehicle: saline with Tween-80 163 % of control

O=C1CC(C(=O)O)N(C(=O)Oc2ccccc2)C(C(=O)O)C1 (stereo not drawn)
inactive: dose: 4.38 mg/kg/injection, schedule: Q01DX005 (ip), vehicle: Klucel (hydroxypropylcellulose) (HPC) 98 % of control | dose: 8.75 mg/kg/injection, schedule: Q01DX005 (ip), vehicle: Klucel (hydroxypropylcellulose) (HPC) 105 % of control | dose: 17.5 mg/kg/injection, schedule: Q01DX005 (ip), vehicle: Klucel (hydroxypropylcellulose) (HPC) 101 % of control

O=P(c1ccccc1)(N1CC1)N1CC1
inactive: dose: 15.0 mg/kg/injection, schedule: Q04DX003 (ip), vehicle: saline 118 % of control | dose: 30.0 mg/kg/injection, schedule: Q04DX003 (ip), vehicle: saline 122 % of control

CC1(C)CN(Cc2ccccc2)C2OC1N(Cc1ccccc1)CC2(C)C
inactive: [4] 102 % of control | [5] 99 % of control | [6] 96 % of control

C[N+](C)(C)NC1OC(C(O)S(=O)(=O)O)C(OCc2ccccc2)C(OCc2ccccc2)C1O (stereo not drawn)
inactive: [7] 104 % of control | [8] 106 % of control

Cn1c(O)c(N=O)c(=O)[nH]c1=S
inactive: dose: 12.5 mg/kg/injection, schedule: Q04DX002 (ip), vehicle: saline 101 % of control | dose: 25.0 mg/kg/injection, schedule: Q04DX002 (ip), vehicle: saline 103 % of control

ClC(Cl)(Cl)C1[O][Sb]([c]2ccccc2)([c]2ccccc2)([c]2ccccc2)[O]1 (stereo not drawn)
inactive: [4] 90 % of control | [5] 101 % of control

c1ccc2[s+]csc2c1
inactive: dose: 6.25 mg/kg/injection, schedule: Q01DX009 (ip), vehicle: distilled water + Tween-80 102 % of control | dose: 12.5 mg/kg/injection, schedule: Q01DX009 (ip), vehicle: distilled water + Tween-80 92 % of control | dose: 25.0 mg/kg/injection, schedule: Q01DX009 (ip), vehicle: distilled water + Tween-80 107 % of control | dose: 50.0 mg/kg/injection, schedule: Q01DX009 (ip), vehicle: distilled water + Tween-80 108 % of control | dose: 100.0 mg/kg/injection, schedule: Q01DX009 (ip), vehicle: distilled water + Tween-80 93 % of control

CCCCCC[N+](C)([O-])CCCCCC[N+](C)([O-])CCCCCC (stereo not drawn)
inactive: [7] 107 % of control | [8] 101 % of control | [9] 97 % of control

COc1ccc(-n2[nH]c3c(cnc4ccccc43)c2=O)cc1
inactive: dose: 15.0 mg/kg/injection, schedule: Q01DX005 (ip), vehicle: saline with Tween-80 87 % of control | dose: 30.0 mg/kg/injection, schedule: Q01DX005 (ip), vehicle: saline with Tween-80 87 % of control | [10] 90 % of control | [11] 100 % of control | [12] 94 % of control

c1ccc2sc(N3CCCCC3)nc2c1
inactive: dose: 25.0 mg/kg/injection, schedule: Q04DX003 (ip), vehicle: Klucel (hydroxypropylcellulose) (HPC) 105 % of control | [7] 104 % of control | [13] 99 % of control | [8] 104 % of control | [14] 100 % of control | [9] 103 % of control | [15] 109 % of control

[NH-]C(CO)C(=O)O.[NH-]C(CO)C(=O)O.[Pd+2] (stereo not drawn)
inactive: dose: 3.13 mg/kg/injection, schedule: Q04DX003 (ip), vehicle: water 103 % of control | dose: 6.25 mg/kg/injection, schedule: Q04DX003 (ip), vehicle: water 100 % of control | dose: 12.5 mg/kg/injection, schedule: Q01DX009 (ip), vehicle: acid diluted with saline 108 % of control | dose: 12.5 mg/kg/injection, schedule: Q01DX009 (ip), vehicle: water 104 % of control and 113 % of control | dose: 12.5 mg/kg/injection, schedule: Q04DX003 (ip), vehicle: water 97 % of control | dose: 25.0 mg/kg/injection, schedule: Q01DX009 (ip), vehicle: acid diluted with saline 109 % of control | dose: 25.0 mg/kg/injection, schedule: Q01DX009 (ip), vehicle: water 108 % of control and 109 % of control | dose: 25.0 mg/kg/injection, schedule: Q04DX003 (ip), vehicle: water 103 % of control | dose: 50.0 mg/kg/injection, schedule: Q01DX009 (ip), vehicle: acid diluted with saline 113 % of control | dose: 50.0 mg/kg/injection, schedule: Q01DX009 (ip), vehicle: water 104 % of control and 117 % of control | dose: 50.0 mg/kg/injection, schedule: Q04DX003 (ip), vehicle: water 117 % of control | dose: 100.0 mg/kg/injection, schedule: Q01DX009 (ip), vehicle: acid diluted with saline 104 % of control | dose: 100.0 mg/kg/injection, schedule: Q01DX009 (ip), vehicle: water 86 % of control | dose: 100.0 mg/kg/injection, schedule: Q04DX003 (ip), vehicle: water 106 % of control

C#CCOc1ccc(Cl)cc1[N+](=O)[O-]
inactive: [4] 100 % of control | [5] 99 % of control | [6] 104 % of control

NC(=S)N/N=C\C(=N/NC(N)=S)c1cccc([N+](=O)[O-])c1
inactive: dose: 12.5 mg/kg/injection, schedule: Q01DX009 (ip), vehicle: saline with Tween-80 92 % of control | dose: 25.0 mg/kg/injection, schedule: Q01DX009 (ip), vehicle: saline with Tween-80 92 % of control | [1] 93 % of control and 96 % of control | [2] 96 % of control | [3] 96 % of control

Cn1c(CO)cnc1-c1ccccc1
inactive: [4] 99 % of control | [5] 100 % of control | [6] 97 % of control

Cc1ccc2nc(CC(=O)c3cccnc3)c(CC(=O)c3cccnc3)nc2c1
inactive: [10] 93 % of control | [11] 100 % of control | [12] 100 % of control

CCCCCCNC(=O)C1C(=O)N(CCCCCC)C(=O)/C1=N\N=C(N)N (stereo not drawn)
inactive: [10] 109 % of control | [11] 109 % of control

COC(=O)c1cc(C#N)n2ccc3ccccc3c12
inactive: [4] 105 % of control | [5] 104 % of control | [6] 94 % of control

Cc1cc(C)cc(C(O)(CBr)CC(C)(Cl)Cl)c1 (stereo not drawn)
inactive: dose: 50.0 mg/kg/injection, schedule: Q01DX009 (ip), vehicle: saline + alcohol 114 % of control | dose: 100.0 mg/kg/injection, schedule: Q01DX009 (ip), vehicle: saline + alcohol 119 % of control | dose: 200.0 mg/kg/injection, schedule: Q01DX009 (ip), vehicle: saline + alcohol 120 % of control

COc1cc(-c2nc(=S)[nH][nH]2)cc(OC)c1OC
inactive: dose: 100.0 mg/kg/injection, schedule: Q01DX001 (ip), vehicle: saline with Tween-80 89 % of control | dose: 200.0 mg/kg/injection, schedule: Q01DX001 (ip), vehicle: saline with Tween-80 89 % of control | dose: 400.0 mg/kg/injection, schedule: Q01DX001 (ip), vehicle: saline with Tween-80 96 % of control

O=Cc1c(-c2ccccc2)nc2sccn12
inactive: [13] 96 % of control | [16] 100 % of control | [14] 96 % of control | [17] 100 % of control | [15] 91 % of control | [18] 99 % of control

CN(C)c1ccc(C(=O)C2(Cl)CCCCC2)cc1
inactive: [16] 97 % of control | [17] 100 % of control | [18] 96 % of control
